Assay results taken from ChEMBL document CHEMBL1141566, “Synthesis and antitumor evaluation of bis aza-anthracene-9,10-diones and bis aza-anthrapyrazole-6-ones” (2008).

Key:
[1] = system: HT-29; assay: Cytotoxicity against human HT29 cells after 72 hrs; assay type: functional; conditions: HT-29, 72 h
[2] = Ratio of Kapp for synthetic poly(dA-dT)]2 oligonucleotide to Kapp for synthetic poly(dG-dC)]2 oligonucleotide
[3] = system: HT-29; assay: Effect on proapoptotic NOD1 gene expression in human HT29 cells after 6 hrs; assay type: functional
[4] = system: HT-29; assay: Effect on proapoptotic FADD gene expression in human HT29 cells after 6 hrs; assay type: functional
[5] = system: HT-29; assay: Effect on proapoptotic BAX gene expression in human HT29 cells after 6 hrs; assay type: functional
[6] = system: HT-29; assay: Effect on proapoptotic BFAR gene expression in human HT29 cells after 12 hrs; assay type: functional
[7] = system: HT-29; assay: Effect on apoptotic BNIP2 gene expression in human HT29 cells after 12 hrs; assay type: functional
[8] = system: HT-29; assay: Effect on apoptotic NAIP gene expression in human HT29 cells after 12 hrs; assay type: functional
[9] = system: HT-29; assay: Effect on apoptotic GADD45A gene expression in human HT29 cells after 6 hrs; assay type: functional
[10] = system: HT-29; assay: Effect on apoptosis in human HT29 PI+/AnnV+ cells after 24 hrs by biparametric flow cytometric analysis; assay type: functional; conditions: HT-29, 24 h, read-out: LC50 (the source's name)
[11] = system: HT-29; assay: Effect on apoptosis in human HT29 PI-/AnnV- cells after 24 hrs by biparametric flow cytometric analysis; assay type: functional; conditions: HT-29, 24 h, read-out: LC50 (the source's name)
[12] = system: HT-29; assay: Effect on proapoptotic CASP9 gene expression in human HT29 cells after 6 hrs; assay type: functional
[13] = system: HT-29; assay: Effect on apoptotic BCL2L1 gene expression in human HT29 cells after 12 hrs; assay type: functional
[14] = system: HT-29; assay: Effect on apoptosis in human HT29 PI-/AnnV+ cells after 24 hrs by biparametric flow cytometric analysis; assay type: functional; conditions: HT-29, 24 h, read-out: LC50 (the source's name)
[15] = system: HT-29; assay: Effect on proapoptotic BFAR gene expression in human HT29 cells after 6 hrs; assay type: functional
[16] = system: HT-29; assay: Effect on apoptotic BIRC4 gene expression in human HT29 cells after 6 hrs; assay type: functional
[17] = system: HT-29; assay: Effect on proapoptotic TRADD gene expression in human HT29 cells after 6 hrs; assay type: functional
[18] = system: HT-29; assay: Effect on proapoptotic CARD8 gene expression in human HT29 cells after 6 hrs; assay type: functional
[19] = system: HT-29; assay: Effect on proapoptotic CASP8 gene expression in human HT29 cells after 6 hrs; assay type: functional
[20] = system: HT-29; assay: Effect on apoptotic MCL1 gene expression in human HT29 cells after 6 hrs; assay type: functional
[21] = system: HT-29; assay: Effect on apoptosis in human HT29 PI-/AnnV+ cells after 6 hrs by biparametric flow cytometric analysis; assay type: functional; conditions: HT-29, 6 h, read-out: LC50 (the source's name)
[22] = system: HT-29; assay: Effect on proapoptotic BAK1 gene expression in human HT29 cells after 6 hrs; assay type: functional
[23] = system: HT-29; assay: Effect on proapoptotic CIDEB gene expression in human HT29 cells after 12 hrs; assay type: functional
[24] = system: HT-29; assay: Effect on apoptotic BCL2L10 gene expression in human HT29 cells after 12 hrs; assay type: functional
[25] = system: HT-29; assay: Effect on apoptotic BRAF gene expression in human HT29 cells after 6 hrs; assay type: functional
[26] = system: HT-29; assay: Effect on apoptosis in human HT29 PI+/AnnV+ cells after 12 hrs by biparametric flow cytometric analysis; assay type: functional; conditions: HT-29, 12 h, read-out: LC50 (the source's name)
[27] = system: HT-29; assay: Effect on apoptosis in human HT29 PI+/AnnV- cells after 24 hrs by biparametric flow cytometric analysis; assay type: functional; conditions: HT-29, 24 h, read-out: LC50 (the source's name)
[28] = system: HT-29; assay: Effect on apoptotic BIRC8 gene expression in human HT29 cells after 6 hrs; assay type: functional
[29] = system: HT-29; assay: Effect on proapoptotic CIDEB gene expression in human HT29 cells after 6 hrs; assay type: functional
[30] = system: HT-29; assay: Effect on apoptotic CFLAR gene expression in human HT29 cells after 6 hrs; assay type: functional
[31] = system: HT-29; assay: Effect on proapoptotic CASP7 gene expression in human HT29 cells after 6 hrs; assay type: functional
[32] = system: HT-29; assay: Effect on proapoptotic TP53 gene expression in human HT29 cells after 6 hrs; assay type: functional
[33] = system: HT-29; assay: Effect on proapoptotic BAX gene expression in human HT29 cells after 12 hrs; assay type: functional
[34] = system: HT-29; assay: Effect on proapoptotic CASP6 gene expression in human HT29 cells after 6 hrs; assay type: functional
[35] = system: HT-29; assay: Effect on apoptosis in human HT29 PI+/AnnV- cells after 6 hrs by biparametric flow cytometric analysis; assay type: functional; conditions: HT-29, 6 h, read-out: LC50 (the source's name)
[36] = system: HT-29; assay: Effect on proapoptotic BNIP1 gene expression in human HT29 cells after 6 hrs; assay type: functional
[37] = system: HT-29; assay: Effect on apoptosis in human HT29 PI-/AnnV- cells after 12 hrs by biparametric flow cytometric analysis; assay type: functional; conditions: HT-29, 12 h, read-out: LC50 (the source's name)
[38] = system: HT-29; assay: Effect on proapoptotic BID gene expression in human HT29 cells after 6 hrs; assay type: functional
[39] = system: HT-29; assay: Effect on apoptotic BIRC3 gene expression in human HT29 cells after 6 hrs; assay type: functional
[40] = system: HT-29; assay: Effect on proapoptotic BCL2 gene expression in human HT29 cells after 12 hrs; assay type: functional
[41] = system: HT-29; assay: Effect on proapoptotic CD70 gene expression in human HT29 cells after 12 hrs; assay type: functional
[42] = system: HT-29; assay: Effect on apoptotic ABL1 gene expression in human HT29 cells after 6 hrs; assay type: functional
[43] = system: HT-29; assay: Effect on proapoptotic BCL2L11 gene expression in human HT29 cells after 6 hrs; assay type: functional
[44] = system: HT-29; assay: Effect on proapoptotic CASP9 gene expression in human HT29 cells after 12 hrs; assay type: functional
[45] = system: HT-29; assay: Effect on apoptotic BIRC4 gene expression in human HT29 cells after 12 hrs; assay type: functional
[46] = system: HT-29; assay: Effect on proapoptotic BCLAF1 gene expression in human HT29 cells after 12 hrs; assay type: functional
[47] = system: HT-29; assay: Effect on proapoptotic TNFRSF11B gene expression in human HT29 cells after 6 hrs; assay type: functional
[48] = system: HT-29; assay: Effect on proapoptotic BNIP3L gene expression in human HT29 cells after 6 hrs; assay type: functional
[49] = system: HT-29; assay: Effect on apoptosis in human HT29 PI+/AnnV+ cells after 6 hrs by biparametric flow cytometric analysis; assay type: functional; conditions: HT-29, 6 h, read-out: LC50 (the source's name)
[50] = system: HT-29; assay: Effect on proapoptotic BIK gene expression in human HT29 cells after 6 hrs; assay type: functional
[51] = system: HT-29; assay: Effect on proapoptotic CASP7 gene expression in human HT29 cells after 12 hrs; assay type: functional
[52] = system: HT-29; assay: Effect on proapoptotic FAS gene expression in human HT29 cells after 6 hrs; assay type: functional
[53] = system: HT-29; assay: Effect on apoptotic BCL2L10 gene expression in human HT29 cells after 6 hrs; assay type: functional
[54] = system: HT-29; assay: Effect on proapoptotic CARD6 gene expression in human HT29 cells after 6 hrs; assay type: functional
[55] = system: HT-29; assay: Effect on apoptosis in human HT29 PI+/AnnV- cells after 12 hrs by biparametric flow cytometric analysis; assay type: functional; conditions: HT-29, 12 h, read-out: LC50 (the source's name)
[56] = system: HT-29; assay: Effect on proapoptotic TNFRSF21 gene expression in human HT29 cells after 6 hrs; assay type: functional
[57] = system: HT-29; assay: Effect on proapoptotic CD27 gene expression in human HT29 cells after 12 hrs; assay type: functional
[58] = system: HT-29; assay: Effect on proapoptotic TRAF2 gene expression in human HT29 cells after 6 hrs; assay type: functional
[59] = system: HT-29; assay: Effect on apoptotic ABL1 gene expression in human HT29 cells after 12 hrs; assay type: functional
[60] = system: HT-29; assay: Effect on apoptotic NOL3 gene expression in human HT29 cells after 6 hrs; assay type: functional
[61] = system: HT-29; assay: Effect on proapoptotic CD70 gene expression in human HT29 cells after 6 hrs; assay type: functional
[62] = system: HT-29; assay: Effect on proapoptotic TRAF3 gene expression in human HT29 cells after 6 hrs; assay type: functional
[63] = system: HT-29; assay: Effect on proapoptotic TRAF4 gene expression in human HT29 cells after 12 hrs; assay type: functional
[64] = system: HT-29; assay: Effect on proapoptotic TRAF4 gene expression in human HT29 cells after 6 hrs; assay type: functional
[65] = system: HT-29; assay: Effect on apoptotic NOL3 gene expression in human HT29 cells after 12 hrs; assay type: functional
[66] = system: HT-29; assay: Effect on proapoptotic TRADD gene expression in human HT29 cells after 12 hrs; assay type: functional
[67] = system: HT-29; assay: Effect on apoptosis in human HT29 PI-/AnnV- cells after 6 hrs by biparametric flow cytometric analysis; assay type: functional; conditions: HT-29, 6 h, read-out: LC50 (the source's name)
[68] = system: HT-29; assay: Effect on apoptosis in human HT29 PI-/AnnV+ cells after 12 hrs by biparametric flow cytometric analysis; assay type: functional; conditions: HT-29, 12 h, read-out: LC50 (the source's name)
[69] = system: HT-29; assay: Effect on proapoptotic BAK1 gene expression in human HT29 cells after 12 hrs; assay type: functional
[70] = system: HT-29; assay: Effect on apoptotic NAIP gene expression in human HT29 cells after 6 hrs; assay type: functional
[71] = system: HT-29; assay: Effect on apoptotic BNIP2 gene expression in human HT29 cells after 6 hrs; assay type: functional
[72] = system: HT-29; assay: Effect on proapoptotic CD27 gene expression in human HT29 cells after 6 hrs; assay type: functional
[73] = system: HT-29; assay: Effect on proapoptotic BNIP3L gene expression in human HT29 cells after 12 hrs; assay type: functional
[74] = system: HT-29; assay: Effect on proapoptotic BCL2 gene expression in human HT29 cells after 6 hrs; assay type: functional

SMILES: CN(C)CCCNc1ccc(NCCCN(C)CCCNc2ccc(NCCCN(C)C)c3c2C(=O)c2ccncc2C3=O)c2c1C(=O)c1cnccc1C2=O
- GI50 [1]: > 100 µM
- Ratio [2]: 1.9

SMILES: CN(C)CCCNc1ccc(NCCCN(C)CCCNc2ccc(NCCCN(C)C)c3c2C(=O)c2cnccc2C3=O)c2c1C(=O)c1ccncc1C2=O
- GI50 [1]: 2 µM
- LC50 (concentration killing 50% of cells) [1]: > 100 µM
- TGI [1]: 7.9 µM
- Ratio [2]: 2.4

SMILES: CN(C)CCNc1ccc(NCCCN(C)CCCNc2ccc(NCCN(C)C)c3c2C(=O)c2cnccc2C3=O)c2c1C(=O)c1ccncc1C2=O
- Fold change [3]: 4.2
- Fold change [4]: 2.4
- Fold change [5]: 5.3
- Fold change [6]: -2.5
- Fold change [7]: -3.3
- Fold change [8]: 52
- Fold change [9]: 3
- CC50 [10]: 18.3 µM
- CC50 [11]: 37.1 µM
- Fold change [12]: 3
- Fold change [13]: -5.9
- CC50 [14]: 36.3 µM
- Fold change [15]: 5.4
- Fold change [16]: 9.3
- Fold change [17]: 4.3
- Fold change [18]: 4
- Fold change [19]: 2.5
- Fold change [20]: -10
- CC50 [21]: 7.4 µM
- Fold change [22]: 4.5
- Fold change [23]: 4.4
- Fold change [24]: 7.8
- Fold change [25]: 2.4
- CC50 [26]: 1.2 µM
- CC50 [27]: 8.3 µM
- Fold change [28]: -2.3
- Fold change [29]: 9.3
- Fold change [30]: 4
- Fold change [31]: 6.4
- Fold change [32]: 3
- Fold change [33]: 3
- Fold change [34]: 3
- CC50 [35]: 3.3 µM
- Fold change [36]: 3
- CC50 [37]: 83.2 µM
- Fold change [38]: 4.3
- Fold change [39]: 2.5
- Fold change [40]: -5.9
- Fold change [41]: 2.2
- Fold change [42]: 33
- Fold change [43]: 7.7
- Fold change [44]: 8.5
- Fold change [45]: 2
- Fold change [46]: 136
- Fold change [47]: 2.1
- Fold change [48]: 7.4
- CC50 [49]: 0.8 µM
- Fold change [50]: 5.2
- Fold change [51]: 3
- Fold change [52]: 2.2
- Fold change [53]: 3.1
- Fold change [54]: -5
- CC50 [55]: 5.3 µM
- Fold change [56]: 3.7
- Fold change [57]: 2.2
- Fold change [58]: 2.4
- Fold change [59]: 58
- Fold change [60]: 4.7
- Fold change [61]: 2.2
- Fold change [62]: 4.5
- Fold change [63]: 23
- Fold change [64]: 94
- GI50 [1]: 0.3 µM
- LC50 (concentration killing 50% of cells) [1]: 62 µM
- TGI [1]: 5.1 µM
- Ratio [2]: 2.5
- Fold change [65]: 15
- Fold change [66]: 2.5
- CC50 [67]: 88.5 µM
- CC50 [68]: 10.3 µM
- Fold change [69]: 4.1
- Fold change [70]: 9.6
- Fold change [71]: -2.9
- Fold change [72]: 2.2
- Fold change [73]: 3.6
- Fold change [74]: 4.2

SMILES: CN(C)CCn1nc2c3c(c(NCCCN(C)CCCNc4ccc5c6c(nn5CCN(C)C)-c5ccncc5C(=O)c46)ccc31)C(=O)c1cnccc1-2
- GI50 [1]: 0.7 µM
- LC50 (concentration killing 50% of cells) [1]: > 100 µM
- TGI [1]: > 100 µM
